The numbers were not newly measured in article PMC10761933, “Acquired and intrinsic resistance to vemurafenib in BRAF^V600E ‐driven melanoma brain metastases” (FEBS Open Bio, 2023), which cites them from elsewhere.

A word on the IC50: it is the concentration at which inhibition is half-maximal.

The subject of series [1] is melanoma brain metastases. The settings on record: MBM patients, treatment alone; cited from earlier work.
The conditions of series [2]: WT mice; cited from earlier work.
The next series relates to A375 cells. The settings on record: read-out: IC50 against A375 cells; cited from earlier work.
The conditions of series [3]: mice; stated without reference; cited from earlier work.

As for `CC(C)(C)c1nc(-c2cccc(NS(=O)(=O)c3c(F)cccc3F)c2F)c(-c2ccnc(N)n2)s1` [dabrafenib], the median overall survival in series [1] is reported as 7 months. Moreover, in series [2], the “brain–plasma ratio” value was “approximately 0.1”. In addition, the IC50 with A375 cells is 4 nM.

On to `COc1cc2c(cc1OC)CN(CCc1ccc(NC(=O)c3cccc4c(=O)c5cccc(OC)c5[nH]c34)cc1)CC2` [elacridar], for which the “t max of oral elacridar” value in series [3] was around 4 h.

Take `COC(=O)N[C@@H](C)CNc1nccc(-c2cn(C(C)C)nc2-c2cc(Cl)cc(NS(C)(=O)=O)c2F)n1` [encorafenib]: the “brain–plasma ratio” value in series [2] is “roughly 0.004”. Moreover, in the series on A375 cells, the IC50 was 4 nM.
